Peptide text beside a SMILES is read from it.
Columns and labels:
[1] = test system: S. aureus ATCC 43300; assay type: cell-based, Staphylococcus aureus; details: microtiter, serial 2-fold dilutions, 37°C, 16∼20 h, triplicate; – = no activity
Procedure: (§1) The minimal inhibitory concentration (MIC) was evaluated by a microtiter plate assay ([Wiegand et al., 2008]). Serial 2-fold dilutions of test peptides were placed into a 96-well plate containing identical bacterial inoculum and incubated at 37°C for 16∼20 h. Vancomycin was used as antibiotic control. The MIC value was defined as the lowest peptide concentration where no visible growth occurred. All tests were made in triplicate.

[2] = test system: Staphylococcus aureus CVCC 546; experiment: microbe, parasite or virus in culture; assay type: cell-based; details: Table 1; – = no activity
Procedure: as §1

SMILES: CC[C@H](C)[C@@H]1NC(=O)[C@@H]2CSSC[C@@H](C(=O)N[C@@H](CCCNC(=N)N)C(=O)N[C@@H](CCCCN)C(=O)O)NC(=O)[C@H](CC(N)=O)NC(=O)[C@@H]3CSSC[C@H](NC(=O)[C@H](C)NC(=O)[C@H](C)NC(=O)[C@H](Cc4c[nH]cn4)NC(=O)CNC(=O)[C@H](C(C)C)NC(=O)[C@H](CCCCN)NC(=O)[C@H](Cc4ccccc4)NC(=O)[C@@H]4CCCN4C(=O)[C@H](CO)NC(=O)[C@H](CC(C)C)NC(=O)[C@H](CC(C)C)NC(=O)[C@H](CC(=O)O)NC(=O)[C@@H](NC(=O)[C@@H](NC(=O)[C@H](C)N)[C@@H](C)O)CSSC[C@H](NC(=O)[C@H](Cc4c[nH]c5ccccc45)NC(=O)CNC(=O)CNC(=O)[C@H](CCCNC(=N)N)NC(=O)[C@H](CCCCN)NC(=O)CNC(=O)[C@H](CCCNC(=N)N)NC(=O)[C@H](C)NC1=O)C(=O)N[C@@H](CC(=O)O)C(=O)N[C@@H](CCCCN)C(=O)N[C@@H](CCCNC(=N)N)C(=O)N[C@@H](C)C(=O)N[C@@H](C(C)C)C(=O)N3)C(=O)N[C@@H](C)C(=O)N[C@@H](C(C)C)C(=O)N[C@@H](Cc1c[nH]cn1)C(=O)N2 [ID28] (HELM PEPTIDE1{A.T.C.D.L.L.S.P.F.K.V.G.H.A.A.C.A.V.H.C.I.A.R.G.K.R.G.G.W.C.D.K.R.A.V.C.N.C.R.K}$PEPTIDE1,PEPTIDE1,3:R3-30:R3|PEPTIDE1,PEPTIDE1,16:R3-36:R3|PEPTIDE1,PEPTIDE1,20:R3-38:R3$$$V2.0; N-terminus and C-terminus assumed; bridges inferred)
- A1 (MIC against S. aureus ATCC 43300) [1]: 8 µg/mL
- MIC [2]: 16

SMILES: CC[C@H](C)[C@@H]1NC(=O)[C@@H]2CSSC[C@@H](C(=O)N[C@@H](CCCNC(=N)N)C(=O)N[C@@H](CC(N)=O)C(=O)O)NC(=O)[C@H](CC(N)=O)NC(=O)[C@@H]3CSSC[C@H](NC(=O)[C@H](C)NC(=O)[C@H](C)NC(=O)[C@H](Cc4c[nH]cn4)NC(=O)CNC(=O)[C@H](C(C)C)NC(=O)CNC(=O)[C@H](Cc4ccccc4)NC(=O)[C@@H]4CCCN4C(=O)[C@H](CO)NC(=O)[C@H](CC(C)C)NC(=O)[C@H](CC(C)C)NC(=O)[C@H](CC(=O)O)NC(=O)[C@@H](NC(=O)[C@@H](NC(=O)[C@H](C)N)[C@@H](C)O)CSSC[C@H](NC(=O)[C@H](Cc4c[nH]c5ccccc45)NC(=O)CNC(=O)CNC(=O)[C@H](CCCNC(=N)N)NC(=O)[C@H](CCCCN)NC(=O)CNC(=O)[C@H](CCCNC(=N)N)NC(=O)[C@H](C)NC1=O)C(=O)N[C@@H](CC(=O)O)C(=O)N[C@@H](CCCCN)C(=O)N[C@@H](CCCNC(=N)N)C(=O)N[C@@H](C)C(=O)N[C@@H](C(C)C)C(=O)N3)C(=O)N[C@@H](C)C(=O)N[C@@H](C)C(=O)N[C@@H](Cc1c[nH]cn1)C(=O)N2 [ID17] (HELM PEPTIDE1{A.T.C.D.L.L.S.P.F.G.V.G.H.A.A.C.A.A.H.C.I.A.R.G.K.R.G.G.W.C.D.K.R.A.V.C.N.C.R.N}$PEPTIDE1,PEPTIDE1,3:R3-30:R3|PEPTIDE1,PEPTIDE1,16:R3-36:R3|PEPTIDE1,PEPTIDE1,20:R3-38:R3$$$V2.0; N-terminus and C-terminus assumed; bridges inferred)
- A1 (MIC against S. aureus ATCC 43300) [1]: 16 µg/mL
- MIC [2]: 64
